The text below walks through data of US11672786B2, “Methods of treating diseases associated with repeat instability” (The Hospital for Sick Children, priority 2016, dated 2023).

For data set [1], the system named is long (CTG)20 slip-out. In words: in vitro repair assay by HeLa cell extracts, long (CTG)20 slip-out. It is filed as biochemical, human. From the text:
Panel A of […] is a schematic of the in vitro repair assay. Starting DNAs and repair products released the repeat-containing fragment, which is resolved on PAGE and assessed on a molar level by Southern blotting and densitometry. Repair of different DNA substrates containing a long (CAG)20 slip-out (Panel B of FIG. 3) long (CTG)20 slip-out (Panel C of FIG. 3), a single CAG slip-out (Panel D of FIG. 3) or a single G-T mismatch (Panel E of FIG. 3), in the absence or in the presence of NA. Slipped-DNA substrates were prepared from hybrids of (CAG)50●(CTG)30, (CAG)30●(CTG)50 or of (CAG)50●(CTG)49. Repair of the G-T mismatch reconstitutes a HindIII restriction site, as shown schematically. Graphs show percentage repair efficiencies to repaired product relative to all repeat-containing fragments in the lane, values are normalized to the NA-free efficiency. […]
To determine how the binding of NA to slipped DNA structures affects repair, a series of circular slipped heteroduplex substrates was made with an excess of repeats with a nick located either 5′ or 3′ of the slip-out (FIG. 3). […] All these substrates were processed in […] by HeLa extracts and then were assessed for repair. Repair products were analyzed by Southern blotting, probed for the repeat-containing fragment, and compared with starting material, which permitted quantitative assessment of repair efficiency at a molar level. […]

The test system of data set [2] is HT1080-(CAG)850 cells. In words: cellular distribution by confocal microscopy. It is filed as cell-based, human. The procedure:
(§1) Scale bar represents 20 μm. […] The cell viability was estimated with WST-1 assays. Values represent the means of three independent measures±SD. […] Error bars indicate the SD of triplicate experiments. […] The dashed line indicates the peak CAG size. Allele lengths are grouped in bins spanning 10 repeats. More than 230 alleles were sized per group.
HT1080-(CAG)850 cells were incubated with 50-μM NBD-labeled NA for 48 hr and Cell Light Plasma Membrane-RFP, BacMam 2.0 (Life Technologies, Carlsbad, Calif.), then fixed for 15 min at RT with 4% paraformaldehyde and washed 2 times for 10 min in phosphate buffered saline (PBS). Cells were mounted with Vectashield hard-set mounting media that contains DAPI (Vector Laboratories, Burlingame, Calif.). Fluorescence images were obtained using Olympus FV1000D confocal laser scanning microscope (Olympus, Tokyo, Japan).

Data set [3] deals with HT1080-(CAG)850 cells. Put plainly: growth curves of cells. Type of data set: cell-based, human. Conditions: 50 μM NA.
Source text: as §1

Data set [4] concerns CAG/CTG R-loops processed by neuron-like human SH-SY5Y cell extracts. Put plainly: R-loop processing by SH-SY5Y cell extracts, STRIP assay. Type of data set: biochemical. The settings on record: NA 50 μM; p=0.002.
Description: Double-R-loops were then treated with RNaseA or H (labeled “A” or “H”) and incubated with 50 μM of NA. Reaction products were then resolved on 1% agarose gel. […] Pre-formed double-R-loops were processed by terminally differentiated (retinoic acid) human neuron-like cell extracts (SH-SY5Y) in the absence or presence of NA (50 μM), as described and DNA repeat lengths were assessed as expansions, contractions, or stable, by the STRIP assay. […] Transcription products were isolated, processed and transformed in E. coli cells, previously shown to stably maintain the (CAG)79●(CTG)79 lengths. Plasmids isolated from individual bacterial colonies were digested with restriction enzymes to release the repeat containing fragment, resolved on 4% polyacrylamide gels and scored for instability.
R-loop templates prepared from in vitro transcription and RNase A treatments were incubated with NA and then processed by extracts of HeLa or SH-SY5Y neuroblastoma cells, where the latter were terminally differentiated by retinoic acid, as previously described (Panigrahi et al., 2005, Nat. Struct. & Mol. Biol., 12:654-62). […] Miniprep DNA was analyzed for changes in repeat length by analysis of the repeat-containing fragment on 4% polyacrylamide gels. […]
For data set [5], the system named is mouse striatum. Put plainly: histological study of mouse striatum, H&E staining. It is filed as in vivo. The settings on record: NA in saline injected into striatum.

For naphthyridine-azaquinolone, the “effect on repair of long (CTG)20 slip-outs” value in data set [1] was “doesn't affect the repair efficiency”. Moreover, the cell permeability entry in data set [2] was “cell-permeable and can enter the nuclei”. The “effect on cell proliferation (growth curves)” value in data set [3] is listed as “lack of an effect upon cell proliferation”. Moreover, the “effect on R-loop processing products (contractions, expansions)” value in data set [4] is on record as “significantly increasing the number of contraction products but not expansion products”. In addition, in data set [5], the brain morphology entry was “did not alter brain morphology”.
